Source: patent US20260232666A1, “COMPOSITIONS AND METHODS FOR INHIBITION OF RAS” (TheRas, Inc., priority 2023, published 2026)

How the values were obtained:
[1] = target: T1, Avi-KRAS G12C (1-169) GppNHp/RAF1 RBD-3×FLAG (52-151) (Homo sapiens, UniProt P01116, G12C); experiment: Raf1 RBD-KRAS G12C-GppNHp disruption assay (protein:protein interaction HTRF); type: biochemical
T1 construct: Avi-KRAS G12C (1-169) GppNHp; Avi (N)
Protocol: Biological Example 2: Disrupting KRAS G12C-Effector Binding (Protein: Protein Interaction HTRF Assay)
A protein: protein interaction (PPI) Homogeneous Time Resolved Fluorescence (HTRF) assay was used to determine the effectiveness of compounds of the present disclosure in disrupting KRAS G12C protein and effector (RAF1 Ras Binding Domain (RBD)) binding.
The HTRF assay used the following reagents and proteins: 50 nM Avi-KRAS G12C (1-169) GppNHp/RAF1 RBD-3×FLAG (52-151); 35 nM Avi-PI3K RBD-3×FLAG; Assay Buffer: 50 mM Tris pH 7.5, 100 mM NaCl, 5 mM MgCl2, 0.1% BSA, 0.01% Tween 20, 10% DMSO; Bead Buffer: 50 mM Tris pH 7.5, 0.01% Tween 20; Assay volume: 20 μL (384 well plate-low volume format); and Compound titration: 30-0.02 μM, 3× dilution series.
The HTRF assay employed the following protocol:
Compounds were dispensed in assay plate (384-well, Grenier Bio-One #784075) using Echo (model 555) with dose response settings: 200 nL final volume, titration from 100 μM as a 10-point dilution series. KRAS proteins were prepared in assay buffer, and dispensed on plates, 5 μL per well, then incubated for 1 h at room temperature, with 700 rpm shaking. RAF1 RBD were prepared in assay buffer, dispensed onto plates, 5 μL per well, and then incubated for 1 h at room temperature, with 700 rpm shaking. Reagent mix was then prepared and dispensed on plates, 10 μL per well, and then incubated for 1 h at room temperature, with 700 rpm shaking.
Plates were analyzed on an Envision plate reader using the following setting: Excitation 320 nm, Bandwidth 75 nm; Emission 615 nm, Bandwidth 85 nm; Gain 100%; Flashes 100; Lag 60 μs. Data was reported as percentage of activity, with DMSO as 100%. Data was plotted and analyzed using Prism 8.
The percent of modification of GppNHp, GTP, or GDP loaded KRAS G12C by MALDI-TOF MS, biochemical Raf1 RBD-KRAS G12C-GppNHp disruption assay IC50, and pERK inhibition IC50 of selected compounds described herein are shown in Table 4. For percent of modification at 15 minutes (MALDI-TOF MS) of GppNHp, GTP, or GDP loaded KRAS G12C: A: percent of modification ≥70%; B: 50≤percent of modification <70%; C: 10%≤percent of modification <50%; D: percent of modification <10%. […] For pERK inhibition in H358 cell assay: A: IC50≤0.1 μM; B: 0.1 μM<IC50≤1 μM; C: IC50>1 μM. Blanks in the table represent that compound was not tested in the indicated assay.

[2] = tested on: pERK in NCI-H358 cells; experiment: Cell-based pERK HTRF assay (pERK inhibition in H358 cells); conditions: 30 min incubation
Procedure, shortened: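 NCI-H358 cells were seeded at 4×10^4 cells/well in RPMI/10% FBS, then treated next day for 30 min at 0.25% DMSO (9-point, 3-fold series from 75 μM). Lysates were read by HTRF (d2/Eu cryptate antibody pair, 615 nm emission) after 4–24 h at room temperature to give pERK IC50.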

[3] = target: T2, GppNHp-loaded KRAS4b (amino acids 1-169) G12C/C118S protein (Homo sapiens, UniProt P01116, C118S/G12C); experiment: Covalent cysteine 12 modification by MALDI-TOF MS, GppNHp-loaded KRAS G12C; type: binding; conditions: 15 minutes reaction time point
T2 construct: KRAS4b (amino acids 1-169) G12C/C118S protein; made in house
Procedure, shortened: (§1)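 Covalent adduct formation measured by linear-mode MALDI-TOF MS as modified peak height over summed peak heights, 15 min time point reported. Reactions: KRAS4b 1-169 G12C/C118S (1 μM, loaded with GppNHp, GTP or GDP) plus compound at 1:2.5 ratio, pH 7.3 HEPES/NaCl/MgCl2, room temperature.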

[4] = target: T3, GTP-loaded KRAS4b (amino acids 1-169) G12C/C118S protein (Homo sapiens, UniProt P01116, C118S/G12C); experiment: Covalent cysteine 12 modification by MALDI-TOF MS, GTP-loaded KRAS G12C; type: binding; conditions: 15 minutes reaction time point
T3 construct: KRAS4b (amino acids 1-169) G12C/C118S protein; made in house
Procedure, shortened: as §1

[5] = target: T4, GDP-loaded KRAS4b (amino acids 1-169) G12C/C118S protein (Homo sapiens, UniProt P01116, C118S/G12C); experiment: Covalent cysteine 12 modification by MALDI-TOF MS, GDP-loaded KRAS G12C; type: binding; conditions: 15 minutes reaction time point
T4 construct: KRAS4b (amino acids 1-169) G12C/C118S protein; made in house
Procedure, shortened: as §1

Row | SMILES | IC50 [1] | IC50 [2] | IC50 ([2]; Homo sapiens, NCI-H358, 0.5 h) | GppNHp-KRAS G12C percent of modification [3] | GTP-KRAS G12C percent of modification [4] | GDP-KRAS G12C percent of modification [5]
1 | C=CC(=O)N1CC[C@@H](N(C)c2nc(OC[C@@]34CCCN3C[C@H](F)C4)nc3c(F)c(-c4ccc(F)c5sc(N)c(C#N)c45)c(C(F)(F)F)cc23)[C@@H]1C (atropisomer, axis not shown) [Compound 71] | 500 to 5000 nM | 100 to 1000 nM |  |  |  | 
2 | C=CC(=O)N1CC[C@@H](N(C)c2nc(OC[C@@]34CCCN3C[C@H](F)C4)nc3cc(-c4ccc(F)c5sc(N)c(C#N)c45)c(F)cc23)[C@H]1C [Compound 15] | < 500 nM |  |  |  |  | 
3 | C=CC(=O)N1CC[C@@H](N(C)c2nc(OC[C@@]34CCCN3C[C@H](F)C4)nc3cc(-c4ccc(F)c5sc(N)c(C#N)c45)c(C#N)cc23)[C@H]1C [Compound 16] | < 500 nM |  | < 100 nM |  |  | 
4 | C=CC(=O)N1CC[C@@H](N(C)c2nc(OC[C@@H]3CCCN3C)nc3c(F)c(-c4ccc(F)c5sc(N)c(C#N)c45)c(C(F)(F)F)cc23)[C@@H]1C [Compound 38] | < 500 nM |  | < 100 nM | A (percent of modification ≥70%) |  | 
5 | C=CC(=O)N1CC[C@@H](N(C)c2nc(OC[C@@]34CCCN3C[C@H](F)C4)nc3c(F)c(-c4ccc(F)c5sc(N)c(C#N)c45)ccc23)[C@@H]1C [Compound 43] | < 500 nM |  | < 100 nM | A (percent of modification ≥70%) |  | 
6 | [2H]C1([2H])CCC2(C([2H])([2H])Oc3nc(N4CC(C)N(C(=O)C=C)CC4C)c4cc(C(F)(F)F)c(-c5ccc(F)c6sc(N)c(C#N)c56)c(F)c4n3)CC(F)CN12 (stereo not shown) [Compound 96] | < 500 nM |  | < 100 nM |  |  | 
7 | [2H]C1([2H])CN2C[C@H](F)C[C@]2(COc2nc(N(CC)[C@@H]3CCN(C(=O)C=C)[C@@H]3C)c3cc(F)c(-c4ccc(F)c5sc(N)c(C#N)c45)cc3n2)C1 [Compound 123] | < 500 nM |  | < 100 nM |  |  | 
8 | [2H]C1([2H])CN2C[C@H](F)C[C@]2(COc2nc(N3C[C@@H](C)N(C(=O)C=C)C[C@@H]3C)c3cc(C(F)(F)F)c(-c4ccc(F)c5sc(N)c(C#N)c45)c(F)c3n2)C1 [Compound 125] | < 500 nM |  |  | A (percent of modification ≥70%) |  | 
9 | [2H]C1([2H])CN2C[C@H](F)C[C@]2(COc2nc(N(C)[C@@H]3CCN(C(=O)C=C)[C@@H]3C)c3cc(C(F)(F)F)c(-c4ccc(F)c5sc(N)c(C#N)c45)c(F)c3n2)C1 [Compound 128, 4-(4-(((2R,3R)-1-acryloyl-2-methylpyrrolidin-3-yl)(methyl)amino)-8-fluoro-2-(((2R,7aS)-2-fluorotetrahydro-1H-pyrrolizin-7a(5H)-yl-6,6-d2)methoxy)-6-(trifluoromethyl)quinazolin-7-yl)-2-amino-7-fluorobenzo[b]thiophene-3-carbonitrile] | < 500 nM |  | < 100 nM | A (percent of modification ≥70%) |  | 
10 | C=CC(=O)N1CC[C@@H](N(C)c2nc(OC[C@]34CCCN3C[C@H](F)C4)nc3c(F)c(-c4ccc(F)c5sc(N)c(C#N)c45)c(C(F)(F)F)cc23)[C@H]1C [Compound 157] | < 500 nM |  | < 100 nM |  |  | 
11 | C=CC(=O)N1CC[C@@H](N(C)c2nc(OC[C@@]34CCCN3C[C@H](OC)C4)nc3c(F)c(-c4ccc(F)c5sc(N)c(C#N)c45)c(Cl)cc23)[C@H]1C [Compound 160] | < 500 nM |  | < 100 nM |  | A (percent of modification ≥70%) | 
12 | C=CC(=O)N1CC[C@@H](N(C)c2nc(OC[C@]34CCCN3C[C@H](F)C4)nc3c(F)c(-c4ccc(F)c5sc(N)c(C#N)c45)c(Cl)cc23)[C@H]1C [Compound 162] | < 500 nM |  | < 100 nM | A (percent of modification ≥70%) |  | 
13 | C=CC(=O)N1CC[C@@H](N(CC)c2nc(OC[C@]34CCCN3C[C@H](F)C4)nc3c(F)c(-c4ccc(F)c5sc(N)c(C#N)c45)ccc23)[C@H]1C [Compound 170] | < 500 nM |  | < 100 nM | A (percent of modification ≥70%) |  | 
14 | C=CC(=O)N1CC[C@@H](N(C)c2nc(OC[C@@H]3CC(=C(F)F)CN3C)nc3c(F)c(-c4ccc(F)c5sc(N)c(C#N)c45)c(Cl)cc23)[C@H]1C [Compound 202] |  |  | 100 to 1000 nM | B (50≤percent of modification <70%) | C (10%≤percent of modification <50%) | B (50≤percent of modification <70%)
15 | C=CC(=O)N1CC[C@@H](N(C)c2nc(O[C@@H](C)[C@@H]3C(=C)CCN3C)nc3c(F)c(-c4ccc(F)c5sc(N)c(C#N)c45)c(C(F)(F)F)cc23)[C@H]1C [Compound 203] |  |  | < 100 nM | A (percent of modification ≥70%) | A (percent of modification ≥70%) | A (percent of modification ≥70%)
16 | C=CC(=O)N1CC[C@@H](N(C)c2nc(O[C@@H](C)[C@@H]3CC(=C(F)F)CN3C)nc3c(F)c(-c4ccc(F)c5sc(N)c(C#N)c45)c(C(F)(F)F)cc23)[C@H]1C [Compound 204] |  |  | 100 to 1000 nM | C (10%≤percent of modification <50%) | C (10%≤percent of modification <50%) | C (10%≤percent of modification <50%)
17 | C=CC(=O)N1CC[C@@H](N(C)c2nc(OC[C@@H]3CC(=C(F)F)CN3C)nc3c(F)c(-c4ccc(F)c5sc(N)c(C#N)c45)c(C(F)(F)F)cc23)[C@H]1C [Compound 205] |  |  | < 100 nM | B (50≤percent of modification <70%) | C (10%≤percent of modification <50%) | C (10%≤percent of modification <50%)
18 | C=CC(=O)N1CCC(N(C)c2nc(OC(C)C3CC(=C(F)F)CN3C)nc3c(F)c(-c4ccc(F)c5sc(N)c(C#N)c45)c(Cl)cc23)C1C (stereo not shown) [Compound 206] |  |  | 100 to 1000 nM | A (percent of modification ≥70%) | B (50≤percent of modification <70%) | A (percent of modification ≥70%)
19 | C=CC(=O)N1CC[C@@H](N(C)c2nc(O[C@@H](C)[C@@H]3C(=C(F)F)CCN3C)nc3c(F)c(-c4ccc(F)c5sc(N)c(C#N)c45)c(C(F)(F)F)cc23)[C@H]1C [Compound 207] |  |  | < 100 nM | B (50≤percent of modification <70%) | C (10%≤percent of modification <50%) | B (50≤percent of modification <70%)
